The record followed here is ChEMBL document CHEMBL1128093, “Discovery and optimization of indole pyrrolothiazole paf antagonists” (Bioorg Med Chem Lett, 1995).

As a reminder, the inhibition in vivo is the percentage by which the read-out fell short of the control. A lower inhibition in vivo goes with a weak effect. As usually defined, the ED50 is the midpoint of the dose-response relation. Lower therefore signals greater potency.

The first assay has as its system Rattus norvegicus. Nature of the assay: In vivo activity by inhibition of PAF-induced cutaneous vascular permeability in rats after peroral administration of 10 mg/kg dose. In kind it is functional. To be noted: route oral.
`CN(C)C(=O)n1cc(C(=O)c2ccn3c2CSC3c2cccnc2)c2ccc(-c3cccnc3)cc21` (stereo not given) showed an inhibition in vivo at 10 mg/kg of 58%.

The next assay deals with Rattus norvegicus. In words: In vivo activity by inhibition of PAF-induced cutaneous vascular permeability in rats after intravenous administration of 1 mg/kg dose. In kind it is functional.
Conditions: not given
Molecule `CN(C)C(=O)n1cc(C(=O)c2ccn3c2CSC3c2cccnc2)c2ccc(Br)cc21` (stereo not given) had an inhibition in vivo at 1 mg/kg of 41%.
Turning to `CN(C)C(=O)n1cc(C(=O)c2ccn3c2CSC3c2cccnc2)c2ccc(Cl)cc21` (stereo not given), the inhibition in vivo at 1 mg/kg was determined as 42%.

The subject of another assay is Rattus norvegicus. In words: In vivo activity by inhibition of PAF-induced cutaneous vascular permeability in rats after peroral administration. In kind it is functional. Particulars: po.
Molecule `NCCn1cc(C(=O)c2ccn3c2CSC3c2cccnc2)c2ccc(-c3ccc(F)cc3)cc21` (stereo not given) returned a 50% effective dose (ED50) of 1.3 mg/kg.
Consider `O=C(O)CCn1cc(C(=O)c2ccn3c2CSC3c2cccnc2)c2ccc(-c3ccc(F)cc3)cc21` (stereo not given), for which the median effective dose (ED50) came out at 5.1 mg/kg.
For the molecule `CN(C)C(=O)n1cc(C(=O)c2ccn3c2CSC3c2cccnc2)c2ccc(OCc3ccccc3)cc21` (stereo not given), the 50% effective dose (ED50) was 3.3 mg/kg. This ED50 lies about 1.5-fold lower than the previous one.
Molecule `NC(=O)n1cc(C(=O)c2ccn3c2CSC3c2cccnc2)c2ccc(-c3ccc(F)cc3)cc21` (stereo not given) returned an ED50 of 0.06 mg/kg. This ED50 lies about 55-fold lower than the previous one.
Regarding `CN(C)C(=O)Cn1cc(C(=O)c2ccn3c2CSC3c2cccnc2)c2ccc(-c3ccc(F)cc3)cc21` (stereo not given), the median effective dose (ED50) was determined as 0.12 mg/kg.
On the same count and under the same terms, then `CN(C)C(=O)n1cc(C(=O)c2ccn3c2CSC3c2cccnc2)c2ccc(Br)cc21` (stereo not given), with 1.5 mg/kg; and `CN(C)C(=O)n1cc(C(=O)c2ccn3c2CSC3c2cccnc2)c2ccc(-c3ccc(F)cc3)cc21` (stereo not given), with 0.06 mg/kg; and `CNC(=O)n1cc(C(=O)c2ccn3c2CSC3c2cccnc2)c2ccc(-c3ccc(F)cc3)cc21` (stereo not given), with 0.12 mg/kg.
For `CN(C)C(=O)n1cc(C(=O)c2ccn3c2CSC3c2cccnc2)c2ccc(Cl)cc21` (stereo not given), the 50% effective dose (ED50) is 1.4 mg/kg.
Molecule `CN(C)C(=O)n1cc(C(=O)c2ccn3c2CSC3c2cccnc2)c2ccc(-c3ccccc3)cc21` (stereo not given) came in with an ED50 of 0.06 mg/kg.
As for `O=C(c1ccn2c1CSC2c1cccnc1)c1cn(CCO)c2cc(-c3ccc(F)cc3)ccc12` (stereo not given), it took a dose of 0.76 mg/kg to reach the 50% effect level (ED50).
With `NNC(=O)n1cc(C(=O)c2ccn3c2CSC3c2cccnc2)c2ccc(-c3ccc(F)cc3)cc21` (stereo not given), the ED50 was 0.57 mg/kg.
On the same count and under the same terms, in the case of `O=C(c1ccn2c1CSC2c1cccnc1)c1c[nH]c2cc(-c3ccc(F)cc3)ccc12` (stereo not given) it was 6.4 mg/kg.

The test system of the next assay is Rattus norvegicus. In words: xIn vivo activity by inhibition of PAF-induced cutaneous vascular permeability in rats after peroral administration. In kind it is functional. To be noted: po.
The molecule `CN(C)S(=O)(=O)n1cc(C(=O)c2ccn3c2CSC3c2cccnc2)c2ccc(-c3ccc(F)cc3)cc21` (stereo not given) returned an ED50 of 5.5 mg/kg.

A further assay concerns Rattus norvegicus. In words: In vivo activity by inhibition of PAF-induced cutaneous vascular permeability in rats after peroral administration of 30 mg/kg dose. In kind it is functional. Particulars: route oral.
As to `CN(C)C(=O)n1cc(C(=O)c2ccn3c2CSC3c2cccnc2)c2ccccc21` (stereo not given), at 30 mg/kg the inhibition in vivo was 34%.

A further assay deals with Rattus norvegicus. In words: In vivo activity by inhibition of PAF-induced cutaneous vascular permeability in rats after intravenous administration. In kind it is functional.
Conditions: not given
`O=C(O)CCn1cc(C(=O)c2ccn3c2CSC3c2cccnc2)c2ccc(-c3ccc(F)cc3)cc21` (stereo not given) returned a 50% effective dose (ED50) of 0.1 mg/kg.
`NC(=O)n1cc(C(=O)c2ccn3c2CSC3c2cccnc2)c2ccc(-c3ccc(F)cc3)cc21` (stereo not given): the 50% effect level (ED50) was put at a dose of 0.01 mg/kg.
The same measure, in the same setting: then `CN(C)C(=O)Cn1cc(C(=O)c2ccn3c2CSC3c2cccnc2)c2ccc(-c3ccc(F)cc3)cc21` (stereo not given), with 0.009 mg/kg; and `CN(C)C(=O)n1cc(C(=O)c2ccn3c2CSC3c2cccnc2)c2ccc(Sc3ccc(F)cc3)cc21` (stereo not given), with 0.27 mg/kg.
Molecule `CCNC(=O)n1cc(C(=O)c2ccn3c2CSC3c2cccnc2)c2ccc(-c3ccc(F)cc3)cc21` (stereo not given) registered an ED50 of 0.18 mg/kg.
Same read-out and setting: in the case of `CN(C)C(=O)n1cc(C(=O)c2ccn3c2CSC3c2cccnc2)c2ccc(-c3ccc(F)cc3)cc21` (stereo not given) it was 0.006 mg/kg; in that of `CN(C)C(=O)n1cc(C(=O)c2ccn3c2CSC3c2cccnc2)c2ccc(Cc3ccccc3)cc21` (stereo not given), 0.09 mg/kg.
Regarding `CN(C)C(=O)n1cc(C(=O)c2ccn3c2CSC3c2cccnc2)c2ccc(Oc3ccc(F)cc3)cc21` (stereo not given), it took a dose of 0.03 mg/kg to reach the 50% effect level (ED50).
`Cn1cc(C(=O)c2ccn3c2CSC3c2cccnc2)c2ccc(-c3ccc(F)cc3)cc21` (stereo not given): the ED50 was found to be 0.09 mg/kg.
Molecule `CN(C)C(=O)n1cc(C(=O)c2ccn3c2CSC3c2cccnc2)c2ccc(-c3ccccc3)cc21` (stereo not given) showed an ED50 of 0.03 mg/kg.
Still for that read-out and setting: then `O=C(c1ccn2c1CSC2c1cccnc1)c1cn(CCO)c2cc(-c3ccc(F)cc3)ccc12` (stereo not given), with 0.1 mg/kg; and `NNC(=O)n1cc(C(=O)c2ccn3c2CSC3c2cccnc2)c2ccc(-c3ccc(F)cc3)cc21` (stereo not given), with 0.04 mg/kg.
